Source: the NIST ThermoML archive (doi:10.1021/je8001255)

Experiment: an = ratio of the nth substance listed, in mol/kg
Settings: 100 kPa, Liquid; for electrical conductivity: Alternating current cell with electrodes

O=S(=O)([O-])[O-].[Cd+2] [cadmium sulfate] + O
Settings | electrical conductivity, 278.15 K [S/m] | electrical conductivity, 283.15 K [S/m] | electrical conductivity, 288.15 K [S/m] | electrical conductivity, 293.15 K [S/m] | electrical conductivity, 298.15 K [S/m] | electrical conductivity, 303.15 K [S/m] | electrical conductivity, 308.15 K [S/m] | mass density, 298.15 K [kg/m3]
a1 = 0.00493 | 0.0507 | 0.0583 | 0.0658 | 0.0734 | 0.0813 | 0.0892 | 0.0972 | 998.06
a1 = 0.01043 | 0.092 | 0.105 | 0.119 | 0.132 | 0.146 | 0.16 | 0.174 | 999.18
a1 = 0.0299 | 0.209 | 0.239 | 0.269 | 0.298 | 0.328 | 0.358 | 0.387 | 1003.14
a1 = 0.0514 | 0.319 | 0.364 | 0.409 | 0.454 | 0.499 | 0.544 | 0.587 | 1007.53
a1 = 0.1001 | 0.537 | 0.612 | 0.687 | 0.761 | 0.836 | 0.91 | 0.981 | 1017.5
a1 = 0.2017 | 0.93 | 1.06 | 1.19 | 1.32 | 1.44 | 1.57 | 1.69 | 1038.74
a1 = 0.4092 | 1.61 | 1.83 | 2.05 | 2.27 | 2.49 | 2.71 | 2.92 | 1084.21
a1 = 0.6014 | 2.13 | 2.42 | 2.72 | 3.01 | 3.31 | 3.6 | 3.89 | 1129.51
a1 = 0.8202 | 2.6 | 2.97 | 3.33 | 3.7 | 4.07 | 4.43 | 4.8 | 1185.1
a1 = 1.001 | 2.96 | 3.38 | 3.79 | 4.21 | 4.63 | 5.05 | 5.47 | 1234.43
a1 = 1.209 | 3.1 | 3.56 | 4.01 | 4.47 | 4.95 | 5.42 | 5.9 | 1295.86
a1 = 1.378 | 3.16 | 3.63 | 4.11 | 4.6 | 5.1 | 5.61 | 6.12 | 1349.9
a1 = 1.486 | 3.13 | 3.62 | 4.11 | 4.61 | 5.12 | 5.65 | 6.18 | 1385.75
a1 = 1.609 | 3.04 | 3.53 | 4.02 | 4.53 | 5.06 | 5.6 | 6.14 | 1429.78
a1 = 1.798 | 2.8 | 3.28 | 3.77 | 4.28 | 4.81 | 5.36 | 5.91 | 1500.75
a1 = 1.939 | 2.53 | 2.99 | 3.46 | 3.95 | 4.47 | 5 | 5.55 | 1556.84

O=S(=O)([O-])[O-].[Mn+2] [manganese(II) sulfate] + O
Settings | electrical conductivity, 278.15 K [S/m] | electrical conductivity, 283.15 K [S/m] | electrical conductivity, 288.15 K [S/m] | electrical conductivity, 293.15 K [S/m] | electrical conductivity, 298.15 K [S/m] | electrical conductivity, 303.15 K [S/m] | electrical conductivity, 308.15 K [S/m] | mass density, 298.15 K [kg/m3]
a1 = 0.00499 | 0.0524 | 0.06 | 0.068 | 0.0761 | 0.0844 | 0.0928 | 0.101 | 997.79
a1 = 0.00999 | 0.0922 | 0.106 | 0.119 | 0.134 | 0.148 | 0.162 | 0.177 | 998.55
a1 = 0.01997 | 0.16 | 0.183 | 0.207 | 0.231 | 0.255 | 0.279 | 0.303 | 1000.02
a1 = 0.05028 | 0.333 | 0.38 | 0.428 | 0.477 | 0.526 | 0.575 | 0.622 | 1004.5
a1 = 0.1005 | 0.575 | 0.656 | 0.739 | 0.822 | 0.905 | 0.987 | 1.07 | 1011.91
a1 = 0.1991 | 1.01 | 1.15 | 1.29 | 1.44 | 1.58 | 1.72 | 1.86 | 1026.55
a1 = 0.3159 | 1.39 | 1.59 | 1.78 | 1.98 | 2.18 | 2.37 | 2.56 | 1044.23
a1 = 0.4963 | 1.93 | 2.2 | 2.47 | 2.75 | 3.03 | 3.3 | 3.57 | 1072.29
a1 = 0.7442 | 2.5 | 2.85 | 3.21 | 3.57 | 3.93 | 4.29 | 4.65 | 1112.53
a1 = 0.9865 | 2.95 | 3.36 | 3.79 | 4.22 | 4.65 | 5.08 | 5.5 | 1153.87
a1 = 1.208 | 3.07 | 3.51 | 3.97 | 4.44 | 4.91 | 5.38 | 5.85 | 1194.32
a1 = 1.384 | 3.1 | 3.57 | 4.04 | 4.53 | 5.03 | 5.52 | 6.02 | 1227.02
a1 = 1.653 | 2.98 | 3.44 | 3.93 | 4.43 | 4.95 | 5.46 | 5.98 | 1280.18
a1 = 1.826 | 2.78 | 3.25 | 3.72 | 4.21 | 4.72 | 5.23 | 5.75 | 1318.47
a1 = 2.082 | 2.41 | 2.84 | 3.29 | 3.76 | 4.25 | 4.74 | 5.24 | 1371.35
a1 = 2.189 | 2.19 | 2.6 | 3.02 | 3.47 | 3.93 | 4.41 | 4.89 | 1398.09
a1 = 2.434 | 1.6 | 1.93 | 2.28 | 2.66 | 3.06 | 3.48 | 3.9 | 1452.93
